Tests used:
Htt-72Q mRNA = assay: qRT-PCR for Htt-72Q (human) mRNA in cortical neurons; type: cell-based, mouse; conditions: RNA at DIV 10, compared to vehicle (DMSO)
Description: (FIG. 8A) DIV 5 mouse primary cortical neurons were infected with Htt-72Q lentivirus and treated with decitabine or vehicle (DMSO). RNA was prepared at DIV 10 and subjected to qRT-PCR analysis for Htt-72Q (human). β-actin and Hprt were used as reference genes. […] (FIG. 8B) DIV 5cortical neurons were infected with Htt lentivirus and treated with decitabine (0.2 μM) or DMSO. Neurons were fixed at DIV 11-12 and subjected to indirect immunofluorescence with a specific mouse monoclonal Htt antibody EM48, which preferentially detects aggregated mutant protein. Nuclei were labeled with Hoechst 33342. Images were captured using an Operetta high-content imaging system (PerkinElmer) with a 20× objective lens. Bar 100 μm. (FIG. 8C) EM48 immunofluorescence intensity in (FIG. 8B) was quantified using an ImageJ-based macro. […] (FIG. 8D) Cortical neurons transduced and processed as in (FIG. 8A) were directly harvested in SDS sample buffer at DIV 10 and subjected to immunoblotting with anti-Htt EM48 monoclonal antibody. Blot was reprobed with anti-β-actin antibody. Representative immunoblot from 3 independent experiments is shown. […]
RNAs were isolated from cultured neurons 5 days after infection of Htt lentiviruses and mouse brain using the RNeasy Plus Mini Kit (QIAGEN) and RNeasy Plus Universal Mini Kit (QIAGEN), respectively. […] Relative mRNA levels were calculated using the ΔΔCq method.

[1] = test system: mutant Htt aggregates in Htt-72Q-expressing primary cortical neurons; assay: Mutant Htt aggregates, EM48 immunofluorescence and immunoblotting; type: cell-based, mouse
Description: (FIG. 8A) DIV 5 mouse primary cortical neurons were infected with Htt-72Q lentivirus and treated with decitabine or vehicle (DMSO). […] (FIG. 8B) DIV 5cortical neurons were infected with Htt lentivirus and treated with decitabine (0.2 μM) or DMSO. Neurons were fixed at DIV 11-12 and subjected to indirect immunofluorescence with a specific mouse monoclonal Htt antibody EM48, which preferentially detects aggregated mutant protein. Nuclei were labeled with Hoechst 33342. Images were captured using an Operetta high-content imaging system (PerkinElmer) with a 20× objective lens. Bar 100 μm. (FIG. 8C) EM48 immunofluorescence intensity in (FIG. 8B) was quantified using an ImageJ-based macro. […] (FIG. 8D) Cortical neurons transduced and processed as in (FIG. 8A) were directly harvested in SDS sample buffer at DIV 10 and subjected to immunoblotting with anti-Htt EM48 monoclonal antibody. Blot was reprobed with anti-β-actin antibody. Representative immunoblot from 3 independent experiments is shown. […] Data in (FIG. 8A) and (FIG. 8C) are presented as mean+SEM.
Image capture and quantification of Htt (EM48) immunofluorescence intensity were performed as described for those of NF.

[2] = test system: Bdnf exon IV, exon VI, and IX transcripts in primary cortical neurons from BACHD mice; assay: qRT-PCR of Bdnf transcripts in BACHD primary cortical neurons; type: cell-based, mouse; conditions: 0.2 μM for 3.5 days, vs. vehicle
Description: RNA was harvested 5 days later and subjected to qRT-PCR for total Bdnf (coding exon IX) using β-actin and 18S rRNA as reference genes. […] FIG. 3C depicts the schematic of the mouse Bdnf locus and the relative RNA levels of the Bdnf exons. White boxes, non-coding exons; gray box, coding exon. qRT-PCR was performed as in using exon-specific Bdnf primers. […] (FIG. 3G, FIG. 3H) Cortical neurons were co-transduced with lenti viruses expressing Htt and indicated shRNA and processed as in (FIG. 3C). […] (FIG. 3I) Primary cortical neurons from BACHD mice were treated with decitabine (0.2 μM) or vehicle for 3.5 days. qRT-PCR was performed using β-actin as a reference gene. […] Data are presented as mean+SEM.
(§1) Mouse primary cortical and striatal neurons from embryonic day (E) 15.5 Swiss Webster mouse fetuses (Taconic) were first plated in the minimal essential medium (MEM) containing 10% FBS, 0.45% glucose, 1 mM sodium pyruvate, 2 mM glutamine, 20 U/ml penicillin and 20 μg/ml streptomycin, for 3 h and then maintained in serum-free Neurobasal medium (Life Technologies) containing NeuroCult™ SM1 neuronal supplement ([…] Technologies), 0.5 mM glutamine and 25 μM glutamate for the first 3 d in a humidified incubator (37° C. in 5% CO2). Half of the medium was replaced with Neurobasal medium with SM1 and 0.5 mM glutamine every 3 days.

[3] = test system: 5-mC in Bdnf promoter IV region; assay: MeDIP-qPCR of Bdnf promoter IV; type: cell-based, mouse; conditions: Htt-72Q-expressing cortical neurons, 0.2 μM vs DMSO
Text: FIG. 4A-4H illustrate that mutant Htt increased the levels of DNA methylation at Bdnf exon IV regulatory region in primary cortical neurons. (FIG. 4A) Schematic of the mouse Bdnf exon IV regulatory region near the TSS. The positions of CpG sites are indicated relative to the TSS. (FIG. 4B) DIV 5 primary cortical neurons were infected with lentivirus expressing Htt-25Q or Htt-72Q exon 1 fragment; 5 days later, genomic DNA was purified and subjected to bisulfite sequencing analysis. […] Increased DNA methylation was found in mutant Htt-expressing neurons compared to WT Htt-expressing neurons. 28-30 clones from 7 independent experiments were analyzed (See FIG. 11A) for the bisulfite sequencing data from each clone). The number above the black bar (Htt-72Q) represents the fold changes in methylated cytosine relative to the white bar (Htt-25Q) at the indicated position. (FIG. 4C) Genomic DNA was purified from primary cortical neurons transduced as in (B) and subjected to MeDIP with anti-5-mC antibody followed by qPCR. […]
Genomic DNA was isolated from primary cortical neurons using QIAamp DNA Mini Kit (QIAGEN) and fragmented by sonication using Bioruptor (Diagenode). […] The percentage input was calculated by first normalizing IP to input DNA using the formula (2^[(Ct(10% input)-3.32)-Ct(IP)]×100) as described previously^89. […]

[4] = test system: downregulated genes in mutant Htt-expressing striatal neurons; assay: qRT-PCR of striatal genes in Htt-72Q primary striatal neurons; type: cell-based, mouse; conditions: Htt-72Q striatal neurons
Description: as §1

[5] = test system: Htt-72Q-expressing primary cortical neurons; assay: Epigenetic drug library screen, resazurin (Alamar Blue) assay; type: cell-based, mouse; conditions: 0.02, 0.2, 2 μM added at DIV 6, resazurin at DIV 14; hits validated by MTS
Description: As epigenetic gene regulation is a cell-type specific mechanism, we used a physiologically relevant, post-mitotic cortical neuron culture system for this screen. In this system, lentivirus-mediated expression of the exon 1-encoded N-terminal fragment of mutant Htt (Htt-72Q with a 72 glutamine repeat), but not wild-type (WT) Htt (Htt-25Q), induces neurotoxicity^38. […] In the drug screen, the viability of Htt-expressing cortical neurons was determined by the resazurin (Alamar Blue) assay, a quantitative measurement of mitochondrial metabolic activity, which correlates with cell viability.
Epigenetic drug screen was performed using a primary cortical neuron model of HD with a drug library composed of 84 compounds (Table 1), among which 80 drugs are purchased from Cayman Chemical (Epigenetic Screening Library Item No 11076) and four drugs, SGC0946, EPZ5676, EPZ6438, and GSK126, were obtained from Xcessbio Biosciences Inc. Mouse primary cortical neurons were plated on 96-well flat clear bottom black plates (Corning #3904). WT or mutant Htt exon1 fragment (Htt-25Q or Htt-72Q)-expressing lentiviruses are infected at DIV 5 as described above. The 84 compounds were added to the media at DIV 6 one day after Htt lentiviral infection with three different doses (0.02, 0.2, 2 μM) for each compound at triplicates. DMSO was used as control. Media containing compounds or DMSO were changed every three days to maintain the compounds' activity. At DIV 14, the viability of neurons was determined by resazurin (Alamar blue) assay, a quantitative measurement of mitochondrial metabolic activity. The screen was fully automated and performed in the High-Throughput Screening Center in Washington University School of Medicine. Any possible plate effects were determined using control plates treated with DMSO and used for normalization. Screen hits were validated by MTS assay.

[6] = literature refs 64, 65; cited from earlier work
[7] = cited from earlier work
cytidine deaminase = molecular target: T1, cytidine deaminase (Homo sapiens, UniProt P32320); conditions: literature refs 62, 64; cited from earlier work
T1 construct: host or cells: liver (in vivo)
T1 sequence (P32320 whole entry, species assumed): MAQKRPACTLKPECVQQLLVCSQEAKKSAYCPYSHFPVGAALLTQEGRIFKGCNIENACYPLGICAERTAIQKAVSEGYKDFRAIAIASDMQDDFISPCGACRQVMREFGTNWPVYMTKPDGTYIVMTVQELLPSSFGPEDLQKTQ

[8] = In vitro stability: preincubation at 37° C. in saline, then MTS neuroprotection assay; conditions: 0.2 mM in saline preincubated at 37° C. for 11 days, then 0.2 μM on Htt-72Q cortical neurons, MTS at DIV 14
Description: Primary cortical neurons grown in a 96-well plate were transduced with Htt-expressing lentiviruses at DIV 5 and assessed for mitochondrial metabolic activity at 9 days post-infection (DIV 14) using 3-(4,5-dimethylthiazol-2-yl)-5-(3-carboxymethoxyphenyl)-2-(4-sulfophenyl)-2H-tetrazolium (MTS) (Promega) per manufacturer's instructions. MTS-reducing activity was normalized for each condition to Htt-25Q lentiviruses treated with vehicle or cotransduced with control RNAi lentivirus (=1). Experiments were performed in 3 or more wells per experiment in three to five independent experiments.

Nc1ncn([C@H]2C[C@H](O)[C@@H](CO)O2)c(=O)n1 [decitabine, 5-aza-2′-deoxycytidine]
levels of Htt-72Q mRNA (Htt-72Q mRNA): did not decrease the levels of Htt-72Q mRNA | levels of mutant Htt aggregates (EM48 immunofluorescence intensity) ([1]; 0.2 μM, fixed at DIV 11-12, vs. Htt-72Q-DMSO): significantly decreased the levels of mutant Htt aggregates | aggregated high molecular weight mutant Htt in stacking gel (EM48 immunoblot) ([1]; harvested at DIV 10): could decrease the levels of aggregated high molecular weight mutant Htt | expression of Bdnf exon IV, exon VI, and IX transcripts [2]: increased expression of Bdnf exon IV, exon VI, and IX transcripts | levels of 5-mC in Bdnf promoter IV region (MeDIP) [3]: decreased levels of 5-mC in Bdnf promoter IV region | mRNA levels of Kdm8 (specificity control) [4]: unchanged | expression of downregulated genes (Drd2, Ppp1r1b, Penk, Pcp4, Rasd2) ([4]; RNA 5 days after infection, vs. Htt-72Q plus vehicle): restored the expression of downregulated genes | outcome in epigenetic drug screen (84 compounds) [5]: the most effective drug | in vitro stability as reported previously [6]: instability | blood-brain barrier crossing ([7]; literature refs 62, 63): reported to cross the blood-brain barrier | in vivo half-life ([7]; literature refs 62, 64): < 20 min | degradation by cytidine deaminase in the liver (cytidine deaminase): degraded rapidly | neuroprotective activity after preincubation (in vitro stability) [8]: lost its activity

Nc1nc(=O)n([C@H]2C[C@H](O)[C@@H](CO)O2)cc1F [FdCyd, 5-fluoro-2′-deoxycytidine]
levels of 5-mC in Bdnf promoter IV region (MeDIP) [3]: decreased levels of 5-mC in Bdnf promoter IV region
